This is an account of results in patent publication US6613901B2, “2-aminoalkylaminoquinolines as dopamine D4 ligands” (Neurogen Corporation, priority 1998, dated 2003).

As usually defined, the melting point is the temperature of the solid-liquid transition.

The target in data set [1] is T1, D2 receptors (Chlorocebus aethiops, UniProt P52702).
T1 construct: expressed in transfected cells; host or cells: COS cells
Kind of data set: D2 receptor binding assay (3H-YM 09151-2). More on the design: species or system African Green monkey. As to conditions: Table 1; COS cell pellets with recombinant receptor, 0.5 nM 3H-YM 09151-2. Here is the method:
(§1) Assay for D2 and D4 Receptor Binding Activity
(§2) Pellets of COS cells containing recombinantly produced D2 or D4 receptors from African Green monkey were used for the assays. The sample is homogenized in 100 volumes (w/vol) of 0.05 M Tris HCl buffer at 4° C. and pH 7.4. The sample is then centrifuged at 30,000×g and resuspended and rehomogenized. The sample is then centrifuged as described and the final tissue sample is frozen until use. The tissue is resuspended 1:20 (wt/vol) in 0.05 M Tris HCl buffer containing 100 mM NaCl.

Data set [2] has as its target T2, M2 Muscarinic subtype (Homo sapiens, UniProt P08172).
T2 sequence (P08172 1-466): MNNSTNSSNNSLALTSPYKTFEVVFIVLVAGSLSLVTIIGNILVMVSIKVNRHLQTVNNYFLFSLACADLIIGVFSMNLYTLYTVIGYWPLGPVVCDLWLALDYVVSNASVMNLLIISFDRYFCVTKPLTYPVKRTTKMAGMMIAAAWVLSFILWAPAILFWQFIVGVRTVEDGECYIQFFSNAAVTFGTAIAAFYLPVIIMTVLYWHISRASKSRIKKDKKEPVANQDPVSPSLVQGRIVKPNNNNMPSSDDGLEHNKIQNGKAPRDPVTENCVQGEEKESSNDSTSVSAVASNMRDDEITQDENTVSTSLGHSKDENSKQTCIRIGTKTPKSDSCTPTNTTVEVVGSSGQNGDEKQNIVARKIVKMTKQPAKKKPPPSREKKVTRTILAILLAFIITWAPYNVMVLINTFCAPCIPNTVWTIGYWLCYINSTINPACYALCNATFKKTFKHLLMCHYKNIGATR
As to the kind of experiment: M2 Muscarinic subtype assay per U.S. Pat. No. 5,093,333. It is filed as binding. The settings on record: Table 1.

The target in data set [3] is T3, M1 Muscarinic subtype (Homo sapiens, UniProt P11229).
T3 sequence (P11229 1-460): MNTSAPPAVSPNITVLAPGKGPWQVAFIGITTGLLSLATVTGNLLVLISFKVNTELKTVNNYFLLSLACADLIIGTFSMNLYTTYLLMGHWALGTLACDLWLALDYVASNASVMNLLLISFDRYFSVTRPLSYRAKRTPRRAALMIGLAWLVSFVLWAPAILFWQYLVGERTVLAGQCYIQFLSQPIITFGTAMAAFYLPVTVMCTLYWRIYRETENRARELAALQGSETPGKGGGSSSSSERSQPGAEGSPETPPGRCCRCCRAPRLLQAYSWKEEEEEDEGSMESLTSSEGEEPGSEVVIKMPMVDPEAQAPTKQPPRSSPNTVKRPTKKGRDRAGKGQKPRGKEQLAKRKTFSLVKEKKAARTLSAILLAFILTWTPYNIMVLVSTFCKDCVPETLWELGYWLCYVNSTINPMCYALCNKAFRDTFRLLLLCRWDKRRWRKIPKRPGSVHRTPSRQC
As to the kind of experiment: M1 Muscarinic subtype assay per U.S. Pat. No. 5,093,333. In kind it is binding. The settings on record: Table 1.

The target of data set [4] is D4 receptors (Chlorocebus aethiops, UniProt A0A0D9REG7). As to the kind of experiment: D4 receptor binding assay (3H-YM 09151-2). More on the design: species or system African Green monkey. As to conditions: Table 1; COS cell pellets with recombinant receptor, 0.5 nM 3H-YM 09151-2; read-out: D4 K1. The procedure:
as §1, §2

Counter-ions that a name gives are not always drawn. Where only a bound is given, the exact number is not on record here.

T1 sequence (P52702 whole entry): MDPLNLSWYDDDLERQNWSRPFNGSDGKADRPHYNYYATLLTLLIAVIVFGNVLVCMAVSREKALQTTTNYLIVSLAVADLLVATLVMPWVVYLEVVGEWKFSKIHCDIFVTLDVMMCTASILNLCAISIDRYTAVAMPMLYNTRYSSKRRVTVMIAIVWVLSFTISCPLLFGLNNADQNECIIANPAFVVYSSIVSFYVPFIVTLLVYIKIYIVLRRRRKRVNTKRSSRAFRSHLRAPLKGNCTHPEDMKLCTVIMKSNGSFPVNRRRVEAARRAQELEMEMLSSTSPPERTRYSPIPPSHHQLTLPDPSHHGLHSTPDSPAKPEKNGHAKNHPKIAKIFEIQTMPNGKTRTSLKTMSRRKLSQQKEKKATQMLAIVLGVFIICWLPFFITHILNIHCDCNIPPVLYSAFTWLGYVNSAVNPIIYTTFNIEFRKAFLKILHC
Sequence of D4 receptors (A0A0D9REG7 entry or part of it): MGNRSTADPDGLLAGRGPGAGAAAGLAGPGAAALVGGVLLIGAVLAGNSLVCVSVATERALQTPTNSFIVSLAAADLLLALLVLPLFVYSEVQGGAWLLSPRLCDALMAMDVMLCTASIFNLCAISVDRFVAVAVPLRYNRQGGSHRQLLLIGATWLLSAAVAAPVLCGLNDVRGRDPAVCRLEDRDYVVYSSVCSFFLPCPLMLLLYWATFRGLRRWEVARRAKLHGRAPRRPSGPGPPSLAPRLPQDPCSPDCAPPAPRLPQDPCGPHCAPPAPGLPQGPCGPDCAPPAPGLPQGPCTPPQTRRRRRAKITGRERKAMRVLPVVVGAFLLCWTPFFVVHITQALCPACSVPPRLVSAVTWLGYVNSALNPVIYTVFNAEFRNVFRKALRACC

The molecule `OC1(c2ccccc2)CCN(CCCNC2=Nc3ccccc3CC2)CC1` (as salt: hydrobromid) had a melting point of 247 °C.
With `OC1(c2ccc(Cl)cc2)CCN(CCCNC2=Nc3ccccc3CC2)CC1` (as salt: hydrobromid), the melting point is more than 260 °C.
Regarding `c1cnc(N2CCN(CCNc3ccc4ccccc4n3)CC2)nc1` [Compound 1, (2-(4-pyrimidin-2-ylpiperazinyl)ethyl)-2-quinolylamine], in data set [1], the Ki came out at 2720 nM. Besides, the “M2” value in data set [2] turned out to be 299 nM. For the same molecule, the “M1” value in data set [3] worked out at 264 nM.
In the case of `c1ccc(N2CCN(CCNC3=Nc4ccccc4CC3)CC2)nc1` [Compound 2, 2-3,4-dihydroquinolyl(2-(4-(2-pyridyl)piperazinyl)ethyl)amine], in data set [1], the Ki is more than 100 nM.
In the case of `Fc1cnc(N2CCN(CCNC3=Nc4ccccc4CC3)CC2)nc1` [Compound 3, 2-3,4-dihydroquinolyl(2-(4-(5-fluoropyrimidin-2-yl)piperazinyl)ethyl)amine], the “M2” value in data set [2] came to 144 nM. Moreover, in data set [3], the “M1” value came to 128 nM.
For the molecule “(3-(4-(2,3-dimethylphenyl)piperazinyl)propyl)-2-quinolylamine [Compound 21]”, the Ki in data set [1] is more than 100 nM; in data set [4], 22 nM.
With “(4-methyl(2-quinolyl))(3-(4-(pyrimidin-2-yl)piperazinyl)propyl)amine [Compound 22]”, the Ki in data set [1] is 3300 nM; in data set [4] it was 10 nM.
Turning to “(4methyl(2-quinolyl))(2-(4-pyrimidin-2-ylpiperazinyl)ethyl)amine hydrobromide [Compound 11]”, the Ki in data set [4] was 10 nM. Further, the “M2” value in data set [2] is listed as 246 nM. For the same molecule, in data set [3], the “M1” value worked out at 178 nM.
